Source: patent US20260226493A1, “HERBICIDE RESISTANT PLANTS” (SYNGENTA CROP PROTECTION AG, priority 2023, published 2026)
“And” between values parts separate entries of the source, which are not always exact repeats. Equal entries are not always repeated.

What was measured:
[1] = system: D4597 (Arabidopsis thaliana BIO3-BIO1 G700S) containing tobacco plants; test: Visual herbicide damage score on transgenic tobacco D4597 (pCMP AtBioDA G700S); type: in vivo; details: 600 gai/ha; 7 DAT; each table row is one D4597 transgenic plant
Excerpt: (§1) Populations of transgenic tobacco comprising 20-30 transgenic events per plant transformation constructs were generated as described in Example 1. These lines were clonally propagated and 1 clone per event was sprayed with 600 g ai/ha compound L or A+0.2% Genapol X080 with a spray volume of 200 L/Ha (“g ai/ha” refers to grams of active compound per hectare).
(§2) Herbicidal damage was visually assessed across the population and a herbicide damage score given at 7, 14 and 21 days. A score of 0 indicates no visible damage or stunting whereas a score of 100 indicates a complete death of the plant. 20 transgenic events (i.e. individual transgenic plants) from each GM tobacco line were transplanted to soil 1 week prior to spraying with BIO3-BIO1inhibiting compounds. WT tobacco was included as a control.
(§3) To determine if overexpression of variants detailed in Example 7 confer resistance to BIO3-BIO1 inhibiting compounds when expressed in plants, GM tobacco lines were produced using the methods in Example 1 and tested with BIO3-BIO1 inhibiting compounds.
(§4) Transgenic tobacco plants expressing the Arabidopsis thaliana BIO3-BIO1 variants C388D (SEQ ID NO:26), P421L(SEQ ID NO:41), F348C (SEQ ID NO:28), G700S (SEQ ID NO:39), W392S (SEQ ID NO:70) and the Zea mays BIO3-BIO1 variant C372D (SEQ ID NO:324). Populations of transgenic tobacco were sprayed and assessed as in Example 2

[2] = system: Cryptosporidium andersoni BioA; test: BioA enzyme activity with DMSO or herbicide in vitro; type: biochemical; details: 0.5 μM, spermidine in substrate mix
[3] = system: D4585 (Arabidopsis thaliana BIO3-BIO1 P421L) containing tobacco plants; test: Visual herbicide damage score on transgenic tobacco D4585 (pCMP AtBioDA P421L); type: in vivo; details: 600 gai/ha; 21 DAT; one D4585 transgenic plant
Excerpt: as §1, §2, §3, §4

Row | SMILES | percentage of damage [1] | % Inhibition relative to DMSO treatment [2] | percentage of damage [3]
1 | CCn1c(Cn2ccc(C(F)(F)F)n2)cc(=O)c(C(=O)O)c1-c1ccc(Cl)c(Cl)c1 [Compound L, 2-(3,4-dichlorophenyl)-1-ethyl-4-oxo-6-[[3-(trifluoromethyl)pyrazol-1-yl]methyl]pyridine-3-carboxylic acid] | 10% | 0% | 
2 | CCOC(=O)c1nn(-c2ccc3c(c2)OC(F)(F)C(F)(F)O3)c2cccc(C(C)=O)c2c1=O [Compound A, ethyl 5-acetyl-4-oxo-1-(2,2,3,3-tetrafluoro-1,4-benzodioxin-6-yl)cinnoline-3-carboxylate] |  |  | 5% and 0% and 2%
